{"source": "ChEMBL document CHEMBL6127010", "about": "“NMR structures of small molecules bound to a model of a CUG RNA repeat expansion” (Bioorg Med Chem Lett, 2024)", "data": [{"test_system": "r(CUG) repeat/Muscleblind-like protein 1", "assay": "Inhibition of 5'-biotinylated r(CUG) repeat (unknown origin) to His6-tagged MBNL1 (unknown origin) complex formation preincubated for 5 mins followed by compound addition for 15 mins prior to streptavidin-XL664 and anti-His6-Tb antibody addition for 1 hr by TR-FRET method", "type": "protein assay", "units": {"IC50": "µM"}, "values": [{"smiles": "N=C(N)Nc1ccc(OC(=O)c2ccc(NC(=N)N)cc2)cc1", "IC50": 8}, {"smiles": "NCCN1CCN=C1c1ccc(C(=O)Nc2ccc(C3=NCCN3)cc2)cc1", "IC50": 19}, {"smiles": "COc1cccc(Nc2cc(C)nc3ccc(C(=N)N)cc23)c1", "IC50": 100}]}]}
